In the assay the target is BTK enzyme (hBTK, full-length recombinant) (Homo sapiens (Human), UniProt Q06187). As to the kind of experiment: Btk enzyme activity assay, LANCE TR-FRET. Type of assay: biochemical. The settings on record: 50 pM hBTK, 2 μM biotin-A5-peptide, 25 μM ATP; 60 minute compound & enzyme incubation; read-out: BTK binding IC50. The method, then: Also BTK enzymatic activity was determined with the LANCE (Lanthanide Chelate Excite) TR-FRET (Time-resolved fluorescence resonance energy transfer) assay. […] Following a 60 minute compound & enzyme incubation, each reaction was initiated by the addition of 2.5 μL 1× kinase buffer containing 8 μM biotinylated “A5” peptide (Biotin-EQEDEPEGDYFEWLE-NH2), and 100 μM ATP. The final reaction in each well of 10 μL consists of […], 2 μM biotin-A5-peptide, and 25 μM ATP. Phosphorylation reactions were allowed to proceed for 120 minutes. Reactions were immediately quenched by the addition of 20 uL of 1× quench buffer (15 mM EDTA, 25 mM Hepes 7.3, and 0.1% Triton X-100) containing detection reagents (0.626 nM of LANCE-Eu-W1024-anti-phosphoTyrosine antibody, PerkinElmer and 86.8 nM of Streptavidin-conjugated Dylight 650, Dyomics/ThermoFisher Scientific). After 60 minutes incubation with detection reagents, reaction plates were read on a PerkinElmer EnVision plate reader using standard TR-FRET protocol. Briefly, excitation of donor molecules (Eu-chelate:anti-phospho-antibody) with a laser light source at 337 nm produces energy that can be transferred to Dylight-650 acceptor molecules if this donor:acceptor pair is within close proximity. Fluorescence intensity at both 665 nm (acceptor) and 615 nm (donor) are measured and a TR-FRET ratio calculated for each well (acceptor intensity/donor intensity). […] (Log10) compound concentrations. Btk Enzyme Activity Assay Method BTK enzymatic activity was determined with the LANCE (Lanthanide Chelate Excite) TR-FRET (Time-resolved fluorescence resonance energy transfer) assay. […] Following a 60 minute compound & enzyme incubation, each reaction was initiated by the addition of 2.5 μL 1× kinase buffer containing 8 μM biotinylated “A5” peptide (Biotin-EQEDEPEGDYFEWLE-NH2), and 100 μM ATP. The final reaction in each well of 10 μL consists of 50 pM hBTK, 2 μM biotin-A5-peptide, and 25 μM ATP. Phosphorylation reactions were allowed to proceed for 120 minutes. Reactions were immediately quenched by the addition of 20 uL of 1× quench buffer (15 mM EDTA, 25 mM Hepes 7.3, and 0.1% Triton X-100) containing detection reagents (0.626 nM of LANCE-Eu-W1024-anti-phosphoTyrosine antibody, PerkinElmer and 86.8 nM of Streptavidin-conjugated Dylight 650, Dyomics/ThermoFisher Scientific). After 60 minutes incubation with detection reagents, reaction plates were read on a PerkinElmer EnVision plate reader using standard TR-FRET protocol. Briefly, excitation of donor molecules (Eu-chelate:anti-phospho-antibody) with a laser light source at 337 nm produces energy that can be transferred to Dylight-650 acceptor molecules if this donor:acceptor pair is within close proximity. Fluorescence intensity at both 665 nm (acceptor) and 615 nm (donor) are measured and a TR-FRET ratio calculated for each well (acceptor intensity/donor intensity). […] (Log10) compound concentrations.
Chain of BTK enzyme (hBTK, full-length recombinant) (Q06187 whole entry): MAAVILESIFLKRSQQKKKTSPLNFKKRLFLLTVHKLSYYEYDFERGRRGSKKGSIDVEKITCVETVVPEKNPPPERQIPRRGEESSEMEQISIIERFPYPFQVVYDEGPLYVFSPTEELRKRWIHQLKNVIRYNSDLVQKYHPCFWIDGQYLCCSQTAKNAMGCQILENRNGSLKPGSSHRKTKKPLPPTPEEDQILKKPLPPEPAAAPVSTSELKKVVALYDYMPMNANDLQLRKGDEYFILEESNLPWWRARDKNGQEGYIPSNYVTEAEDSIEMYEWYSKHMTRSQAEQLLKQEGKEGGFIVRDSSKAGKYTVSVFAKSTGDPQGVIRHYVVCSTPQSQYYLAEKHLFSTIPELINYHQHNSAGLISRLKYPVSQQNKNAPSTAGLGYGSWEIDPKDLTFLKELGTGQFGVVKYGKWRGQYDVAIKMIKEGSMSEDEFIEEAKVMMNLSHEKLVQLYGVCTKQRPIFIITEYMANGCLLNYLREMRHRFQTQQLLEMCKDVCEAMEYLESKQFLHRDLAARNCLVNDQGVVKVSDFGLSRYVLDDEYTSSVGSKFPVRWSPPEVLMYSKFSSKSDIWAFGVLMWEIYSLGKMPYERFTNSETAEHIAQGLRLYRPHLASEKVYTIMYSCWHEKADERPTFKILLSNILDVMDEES
In general terms: In TR-FRET formats the signal depends on donor and acceptor labels being close together.
Broadly, the IC50 is the midpoint of a concentration-inhibition curve. Take `CC1(C(=O)N2CCC[C@@H](c3nn(-c4ccc(Oc5ccccc5)cc4)c4c(N)nccc34)C2)COC1` [Example 1, (R)-(3-(7-amino-1-(4-phenoxyphenyl)-1H-pyrazolo[3,4-c]pyridin-3-yl)piperidin-1-yl)(3-methyloxetan-3-yl)methanone]: the half-inhibitory concentration (IC50) was found to be 1.7 nM. Under `Nc1nccc2c([C@@H]3CCCN(C(=O)C4CC4(F)F)C3)nn(-c3ccc(Oc4ccccc4)cc3)c12` (stereo partly drawn) [Example 4, 3-{(3R)-1-[(2,2-difluorocyclopropyl)carbo-nyl]piperidin-3-yl}-1-(4-phenoxyphenyl)-1H-pyrazolo[3,4-c]pyridin-7-amine] stands 9.3 nM. Under `CC1(C(=O)N2CCC[C@@H](c3nn(-c4ccc(Oc5ccc(F)cc5)cc4)c4c(N)nccc34)C2)COC1` [Example 26, (R)-(3-(7-amino-1-(4-(4-fluorophenoxy)phenyl)-1H-pyrazolo[3,4-c]pyridin-3-yl)piperidin-1-yl)(3-methyloxetan-3-yl)methanone] stands 56.9 nM.

Turning to `C[C@H]1CC[C@@H](c2nn(-c3ccc(Oc4cccc(F)c4)cc3)c3c(N)nccc23)CN1C(=O)C1(C)COC1` [Example 28, 1-[4-(3-fluorophenoxy)phenyl]-3-{(3R,6S)-6-methyl-1-[(3-methyloxetan-3-yl)carbonyl]piperidin-3-yl}-1H-pyrazolo[3,4-c]pyridin-7-amine], the IC50 worked out at 3.8 nM.

Regarding `C[C@@H](O)C(=O)N1C[C@H](c2nn(-c3ccc(Oc4cccc(F)c4)cc3)c3c(N)nccc23)CC[C@@H]1C` [Example 29, (2R)-1-[(2S,5R)-5-{7-amino-1-[4-(3-fluorophenoxy)phenyl]-1H-pyrazolo[3,4-c]pyridin-3-yl}-2-methylpiperidin-1-yl]-1-oxopropan-2-ol], the half-inhibitory concentration (IC50) stood at 5.8 nM.

The record behind these values is patent US9637486B2, “Btk inhibitors” (MERCK SHARP & DOHME CORP., priority 2013, dated 2017).
